Data published in patent US11633485B2, “Cleavable esters for nanocarrier-based cancer therapy” (priority 2017, dated 2023).

Columns and labels:
[1] = Acid strength (pKa) of the ester-forming acid of model compounds; format: physicochemical; conditions: pKa of the acid forming the ester bond
Description: Table 1 illustrates the effect of acid strength on rate of hydrolytic cleavage for several model compounds.

[2] = test system: MYCN-amplified NB cells (IMR-32, ATCC CCL-127); assay: Antiproliferative effect of co-drug loaded nanoparticles on neuroblastoma cells; format: cell-based; conditions: IMR-32 cells, doses equivalent to 5-20 ng SN-22 per well, 96-well plates
Description: Blank NP were used as a negative control, and unmodified SN-22, diluted in cell culture medium from a DMSO stock, was used as a positive control.
Cell growth curves of NB cells treated with co-drug loaded nanoparticles at doses corresponding to 5 ng SN-22 per well (96-well plates) for 24 hours are shown in comparison to “no treatment”, drug-free nanoparticles and free SN-22 (upper panel). Cell growth inhibition (%) determined 6 days post-treatment is shown for co-drug loaded and drug-free (control) nanoparticles as a function of dose and exposure duration (lower panel).

[3] = Release studies of co-drug loaded nanoparticles, external sink method; format: physicochemical; conditions: sink conditions, 37° C., acceptor medium heptane/methyl tert-butyl ether 1:1 v/v
Description: Release samples were also analyzed by TLC (right panel). […] (lane 3 vs. 2). Free SN-22 is included in lane 1.

| Molecule | Acid pKa [1] | further results |
| --- | --- | --- |
| CCOC(=O)C(=O)NC [CH3NHCOCOEt] | 1.8 | – |
| CCOC(C)=O [CH3COOEt] | 4.7 | – |
| CCOC(=O)COC [CH3OCH2COOEt] | 3.6 | – |
| CCOC(=O)COC(C)=O [CH3COOCH2COOEt] | 2.7 | – |
| CCc1c2c(nc3ccccc13)-c1cc3c(c(=O)n1C2)COC(=O)[C@]3(O)CC [SN-22, 7-ethylcamptothecin] | – | Cell growth / proliferation inhibition [2]: fully inhibited cell growth |
| SN-22 ester of tocopheryl oxyacetic acid [SN22-TOAc] | – | Release rate from nanoparticles [3]: more stable retention |
